What was measured:
Assay type in all cases: in vivo, rat
Smad 2 mRNA = assay: Semi-quantitative RT-PCR of renal grafts, Smad 2 mRNA; settings: vs controls
Protocol: (§1) Semi-quantitative Reverse transcription polymerace chain reaction (RT-PCR): Following graft harvest a […] containing both cortex and medulla was snap frozen in liquid nitrogen. Semi-quantitative RT-PCR was performed as described. Little et al. Transplant Int. 12:393-401, 1999. Briefly, samples were homogenized then total RNA extracted with RNAzol B (Tel Test, Inc., Friendswood, Tex.) and reversed transcribed to cDNA according to manufacturer=s instructions (Superscript, Gibco BRL). PCR was performed over the linear range of amplification for both the gene of interest, e.g. TGFβ-1, and the ribosomal protein S26 as a control housekeeping gene. PCR conditions were chosen such that both products were amplified with similar efficiency. The following cycle parameters were employed: denaturing, 94° C. for 60 seconds; annealing, 61° C. for 60 seconds; and extension, 72° C. for 60 seconds. The amount of product was quantified using a phosphoimager (Storm 80) following gel electrophoresis and Vista green detection.

Smad 7 protein = assay: Western blot of renal graft lysates, Smad 7 protein; settings: allogeneic grafts vs untreated allogeneic grafts (FIG. 4B)
Excerpt: (§2) Renal lysates were subjected to SDS-PAGE and transferred to nitrocellulose membranes. The membranes were probed with specific anti-Smad antibodies and appropriated HRP-conjugated secondary antibodies. Signal was detected with chemilumensnce. Following exposure, x-ray films were scanned and the amount of expression compared to that of tubulin as an internal control using Scion Image software. FIG. 4 (A) describes R-Smad expression. FIG. 4 (B) described I-Smad expression.
(§3) Western Blot Analysis: A portion of the snap frozen graft containing both cortex and medulla was ground with a mortar and pestle. For each 100 mg of tissue, the sample was resuspened in 400 ul of lysis buffer (10 mM Tris base, 150 mM NaCl, pH 8.0) containing protease inhibitors (P2714 1:1000. Sigma Chemical Co., St. Louis, Mo.) and homogenized (PowerGen 125, 1 minute). Triton X100 was then added to 1% and the sample place on ice, for 30 minutes. The solubilized sample was then spun at 4° C. for 15 minutes at 15,000×G. The supernatant was collected and stored at −80° C. Sample protein concentrations were determined using the Micro BCA assay (Pierce Chemical Co., Rockford, Ill.) according to manufacturer=s instructions, except that the assay was performed in half area plates combining 35 μl sample with 70 µl of reagent. […]

Smad 3 protein = assay: Western blot of renal graft lysates, Smad 3 protein; settings: allogeneic recipients regardless of treatment, vs syngeneic controls (data not shown)
Excerpt: as §2, §3

Vitamin D receptor mRNA = assay: Semi-quantitative RT-PCR of renal grafts, vitamin D receptor mRNA
Protocol: as §1, with “12:393-401, 1999.” left out

Vitamin D receptor mRNA expression (Vitamin D receptor mRNA; all treated groups vs untreated syngeneic control (data not shown)): elevated
Vitamin D receptor mRNA expression (Vitamin D receptor mRNA; vs untreated allogeneic control (data not shown)): not significantly different
SMILES: C=C1/C(=C\C=C2/CCC[C@]3(C)[C@@H]([C@H](C)CCCC(C)(C)O)CC[C@@H]23)C[C@@H](O)C[C@@H]1O [calcitriol, 1,25-dihydroxyvitamin D3]
Smad 2 mRNA levels (Smad 2 mRNA): no significant change
Increase in Smad 7 protein levels (Smad 7 protein): 4,3 fold
Smad 3 protein levels (Smad 3 protein): similar
